In this assay the target is T1, rat mGluR5 (Rattus norvegicus, UniProt P31424).
T1 construct: expressed in transfected cells; host or cells: HEK (human embryonic kidney) cells
The assay can be described thus: Potentiation of glutamate response in HEK cells transfected with rat mGluR5 (Ca2+ fluorescence, FDSS). The format is cell-based. Here is the method: Human embryonic kidney (HEK) cells transfected with rat mGluR5 were plated in clear bottom assay plates for assay in a Functional Drug Screening System (FDSS). In the alternative assay, HEK cells transfected with human mGluR5 (H10H cell line) were plated for assay in the FDSS. […] The cells were loaded with a Ca^2+-sensitive fluorescent dye (e.g., Fluo-4), and the plates were washed and placed in the FDSS instrument. After establishment of a fluorescence baseline for twelve seconds, the compounds of the present invention were added to the cells, and the response in cells was measured. Five minutes later, an mGluR5 agonist (e.g., glutamate, 3,5-dihydroxyphenylglycine, or quisqualate) was added to the cells, and the response of the cells was measured. Potentiation of the agonist response of mGluR5 by the compounds in the present invention was observed as an increase in response to non-maximal concentrations of agonist (here, glutamate) in the presence of compound compared to the response to agonist in the absence of compound.
The above described assay operated in two modes. In the first mode, a range of concentrations of the present compounds were added to cells, followed by a single fixed concentration of agonist. If a compound acted as a potentiator, an EC50 value for potentiation and a maximum extent of potentiation by the compound at this concentration of agonist was determined by non-linear curve fitting. In the second mode, several fixed concentrations of the present compounds were added to various wells on a plate, followed by a range of concentrations of agonist for each concentration of present compound; the EC50 values for the agonist at each concentration of compound were determined by non-linear curve fitting. A decrease in the EC50 value of the agonist with increasing concentrations of the present compounds (a leftward shift of the agonist concentration-response curve) is an indication of the degree of mGluR5 potentiation at a given concentration of the present compound. An increase in the EC50 value of the agonist with increasing concentrations of the present compounds (a rightward shift of the agonist concentration-response curve) is an indication of the degree of mGluR5 antagonism at a given concentration of the present compound. The second mode also indicates whether the present compounds also affect the maximum response to mGluR5 to agonists.

Where [1] appears, read: HEK cells transfected with rat mGluR5, read-out: rmGlu5 PAM EC50.
Where [2] appears, read: (R) and (S) enantiomers, Tables 3A/3B, read-out: mGluR5 EC50.

Read-outs that look alike come from different tables or passages of the source.

T1 sequence (P31424 21-1203): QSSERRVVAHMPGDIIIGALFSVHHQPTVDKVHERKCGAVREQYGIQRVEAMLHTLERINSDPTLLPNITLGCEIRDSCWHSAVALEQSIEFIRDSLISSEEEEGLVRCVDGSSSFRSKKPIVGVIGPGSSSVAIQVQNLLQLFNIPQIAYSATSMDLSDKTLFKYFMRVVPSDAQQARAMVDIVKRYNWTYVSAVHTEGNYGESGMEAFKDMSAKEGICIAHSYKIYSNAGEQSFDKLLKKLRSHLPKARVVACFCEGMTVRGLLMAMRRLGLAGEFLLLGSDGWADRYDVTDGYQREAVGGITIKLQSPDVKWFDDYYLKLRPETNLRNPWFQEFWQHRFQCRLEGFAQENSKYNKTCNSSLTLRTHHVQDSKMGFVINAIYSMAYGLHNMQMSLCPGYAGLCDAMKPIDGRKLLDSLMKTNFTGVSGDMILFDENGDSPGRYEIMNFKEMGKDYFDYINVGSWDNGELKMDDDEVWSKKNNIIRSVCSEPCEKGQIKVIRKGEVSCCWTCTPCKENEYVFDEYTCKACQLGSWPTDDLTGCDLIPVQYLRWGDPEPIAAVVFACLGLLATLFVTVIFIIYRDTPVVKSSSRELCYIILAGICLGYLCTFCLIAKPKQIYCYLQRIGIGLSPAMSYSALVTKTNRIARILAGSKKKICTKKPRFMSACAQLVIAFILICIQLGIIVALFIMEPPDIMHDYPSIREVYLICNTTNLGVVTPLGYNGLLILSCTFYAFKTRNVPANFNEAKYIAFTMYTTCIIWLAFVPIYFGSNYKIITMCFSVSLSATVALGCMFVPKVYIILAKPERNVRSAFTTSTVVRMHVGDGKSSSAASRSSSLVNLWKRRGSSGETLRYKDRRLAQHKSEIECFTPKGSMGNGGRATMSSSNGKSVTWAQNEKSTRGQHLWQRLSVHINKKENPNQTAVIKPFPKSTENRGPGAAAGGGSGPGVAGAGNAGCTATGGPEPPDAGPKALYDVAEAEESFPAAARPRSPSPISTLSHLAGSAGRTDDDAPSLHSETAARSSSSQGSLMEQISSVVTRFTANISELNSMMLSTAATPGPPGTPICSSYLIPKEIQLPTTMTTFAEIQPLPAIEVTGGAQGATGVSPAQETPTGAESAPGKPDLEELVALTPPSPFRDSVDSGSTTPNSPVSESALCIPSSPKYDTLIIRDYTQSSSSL

As a reminder, the EC50 is the midpoint of the concentration-response curve. Regarding `C[C@@H](NC(=O)c1ccc(COc2cccc(F)c2)nc1)C1CC1`, under setting [1], the EC50 was found to be 1060 nM.
For the compound `C[C@@H](NC(=O)c1ccc(COc2ccc(F)cc2)nc1)C1CCCCC1`, under setting [1], the 50% effective concentration (EC50) was 360 nM.
As for `C[C@@H](NC(=O)c1ccc(COc2ccncc2)nc1)C1CCCCC1`, the EC50 under setting [1] came to 2600 nM.
In the case of `O=C(Nc1nncs1)c1ccc(COc2ccccc2)nc1`, the EC50 under setting [1] was more than 10000 nM.
In the case of `C[C@@H](NC(=O)c1ccc(COc2cc(F)cc(F)c2)nc1)C1CCCCC1` [Example 12a, (R)-N-(1-cyclohexylethyl)-6-((3,5-difluorophenoxy)methyl)nicotinamide], the EC50 under setting [2] is 309 nM.
Same read-out and setting: then `C[C@H](NC(=O)c1ccc(COc2cccc(F)c2)nc1)C(C)(C)C` [Example 13b, (S)-N-(3,3-dimethylbutan-2-yl)-6-((3-fluorophenoxy)methyl)nicotinamide], with more than 10000 nM.
In the case of `CC(C)(C)CCNC(=O)c1ccc(COc2cccc(F)c2)nc1`, the half-maximal effective concentration (EC50) under setting [1] came out at 302 nM.
Regarding `C[C@H](NC(=O)c1ccc(COc2cc(F)cc(F)c2)nc1)C1CCCCC1` [Example 12b, (S)-N-(1-cyclohexylethyl)-6-((3,5-difluorophenoxy)methyl)nicotinamide], the EC50 under setting [2] was more than 10000 nM.
Turning to `O=C(Nc1ccccn1)c1ccc(COc2ccccc2)nc1`, the EC50 under setting [1] is 5250 nM.
`O=C(Nc1nccs1)c1ccc(COc2cccc(F)c2)nc1`: the concentration for a half-maximal effect (EC50) under setting [1] was more than 10000 nM.
Consider `O=C(Nc1cccc(Cl)c1)c1ccc(COc2ccccc2)nc1`, for which the EC50 under setting [1] is more than 10000 nM.
For the compound `O=C(NC1(c2ccccc2)CCC1)c1ccc(COc2cccc(F)c2)nc1`, under setting [1], the concentration giving a half-maximal response (EC50) worked out at 912 nM.
Take `O=C(NC1CCC1)c1ccc(COc2cccc(F)c2)nc1`: the EC50 under setting [1] was 3470 nM.
Still for that read-out and setting: then `O=C(NC1(c2ccccc2)CCC1)c1ccc(COc2cc(F)cc(F)c2)nc1`, with more than 10000 nM; and `CC[C@@H](C)NC(=O)c1ccc(COc2cccc(F)c2)nc1`, with 3310 nM.
On to `C[C@@H](NC(=O)c1ccc(COc2cc(F)cc(C#N)c2)nc1)C1CCCCC1`, for which the EC50 under setting [1] is more than 10000 nM.
Take `O=C(NC1CCC1)c1ccc(COc2ccccc2)nc1`: the concentration giving a half-maximal response (EC50) under setting [1] worked out at 4680 nM.
As to `O=C(NC1CCc2ccccc21)c1ccc(COc2ccccc2)nc1` (stereo not shown) [drawing 138], the EC50 under setting [1] is more than 10000 nM.
As for `O=C(Nc1ccc(Cl)cc1)c1ccc(COc2ccccc2)nc1`, the EC50 under setting [1] was more than 10000 nM.
Same read-out and setting: the result for `C[C@@H](NC(=O)c1ccc(COc2cccnc2)nc1)C1CCCCC1` [drawing 109] reads 4900 nM; that for `O=C(NC1CC2CCC1C2)c1ccc(COc2ccccc2)nc1` (stereo not shown) [drawing 66], 120 nM.
As for `O=C(NC(C1CC1)C1CC1)c1ccc(COc2cccc(F)c2)nc1`, the half-maximal effective concentration (EC50) under setting [1] was determined as 1260 nM.
In the case of `C[C@@H](NC(=O)c1ccc(COc2cccc(F)c2)nc1)C1CCC1`, the concentration giving a half-maximal response (EC50) under setting [1] amounted to 138 nM.
With `COc1ccccc1OCc1ccc(C(=O)N[C@H](C)C2CCCCC2)cn1`, the EC50 under setting [1] was determined as 3400 nM.
The same measure, in the same setting: then `C[C@H](NC(=O)c1ccc(COc2cccc(F)c2)nc1)C1CCCCC1` [drawing 152], with more than 10000 nM; and `C[C@@H](NC(=O)c1ccc(COc2ccccc2F)nc1)C1CCCCC1`, with 160 nM; and `CC(C)NC(=O)c1ccc(COc2cccc(F)c2)nc1`, with more than 10000 nM.
Still for that read-out and setting: then `CC(C)[C@@H](C)NC(=O)c1ccc(COc2cccc(F)c2)nc1`, with 158 nM; and `O=C(Nc1ccc(Cl)cc1F)c1ccc(COc2ccccc2)nc1`, with more than 10000 nM.
On the same count and under the same terms, the result for `O=C(Nc1cc(F)cc(F)c1)c1ccc(COc2ccccc2)nc1` reads more than 10000 nM.
As for `O=C(Nc1ncccc1F)c1ccc(COc2ccccc2)nc1`, the 50% effective concentration (EC50) under setting [1] was more than 10000 nM.
Same read-out and setting: then `COCC(C)NC(=O)c1ccc(COc2cccc(F)c2)nc1` (stereo not shown), with more than 10000 nM; and `O=C(Nc1ccc(Cl)cn1)c1ccc(COc2ccccc2)nc1`, with more than 10000 nM; and `COc1cccc(OCc2ccc(C(=O)N[C@H](C)C3CCCCC3)cn2)c1`, with 1200 nM.
Still for that read-out and setting: then `CC(C)(C)CCNC(=O)c1ccc(COc2cc(F)cc(C#N)c2)nc1`, with more than 10000 nM.
On the same count and under the same terms, then `C[C@@H](NC(=O)c1ccc(COc2cccc(F)c2)nc1)C1CCCCC1` [drawing 67], with 130 nM.
Turning to `C[C@@H](NC(=O)c1ccc(COc2cccc(F)c2)nc1)C1CCCCC1` [Example 11a, (R)-N-(1-cyclohexylethyl)-6-((3-fluorophenoxy)methyl)nicotinamide], the half-maximal effective concentration (EC50) under setting [2] turned out to be 130 nM.
For `O=C(NCCN1CCOCC1)c1ccc(COc2ccccc2)nc1`, the EC50 under setting [1] is more than 10000 nM.
In the case of `C[C@@H](NC(=O)c1ccc(COc2cccnc2)nc1)C1CCCCC1` [drawing 107], the EC50 under setting [1] worked out at 4500 nM.
Take `CN(C)CCCNC(=O)c1ccc(COc2ccccc2)nc1`: the EC50 under setting [1] is more than 10000 nM.
On the same count and under the same terms, the result for `O=C(NC1CCC1)c1ccc(COc2cc(F)cc(F)c2)nc1` reads 3390 nM; that for `O=C(NCCN1CCCCC1)c1ccc(COc2ccccc2)nc1`, more than 10000 nM.
Take `O=C(NC1CC2CCC1C2)c1ccc(COc2ccccc2)nc1` (stereo not shown) [drawing 70]: the EC50 under setting [1] came out at 151 nM.
On to `O=C(NC(C1CC1)C(F)(F)F)c1ccc(COc2cccc(F)c2)nc1` (stereo not shown), for which, under setting [1], the concentration giving a half-maximal response (EC50) came to 1900 nM.
For `C[C@@H](NC(=O)c1ccc(COc2ccccc2Cl)nc1)C1CCCCC1`, the EC50 under setting [1] is more than 10000 nM.
For `C[C@@H](NC(=O)c1ccc(COc2cccc(F)c2)nc1)C(C)(C)C` [drawing 65], under setting [1], the concentration giving a half-maximal response (EC50) came out at 81.3 nM.
Consider `O=C(NCCc1ccccn1)c1ccc(COc2ccccc2)nc1`, for which the half-maximal effective concentration (EC50) under setting [1] is more than 10000 nM.
Regarding `CC(C)CCNC(=O)c1ccc(COc2ccccc2)nc1`, the EC50 under setting [1] turned out to be 966 nM.
Still for that read-out and setting: then `CC(C)(C)CCNC(=O)c1ccc(COc2cc(F)cc(F)c2)nc1`, with 1580 nM; and `CC(C)CNC(=O)c1ccc(COc2ccccc2)nc1`, with 1700 nM; and `C[C@@H](NC(=O)c1ccc(COc2cccc(F)c2)nc1)C1CCCCC1` [drawing 73], with 170 nM.
The same measure, in the same setting: then `C[C@@H](NC(=O)c1ccc(COc2cc(F)cc(F)c2)nc1)C1CCCCC1` [drawing 81], with 309 nM; and `COCCNC(=O)c1ccc(COc2ccccc2)nc1`, with more than 10000 nM; and `O=C(NC1C2CC3CC(C2)CC1C3)c1ccc(COc2ccccc2)nc1` (stereo not shown), with 288 nM.
In the case of `CC1(C)CC(CNC(=O)c2ccc(COc3cccc(F)c3)nc2)CCO1` (stereo not shown), the EC50 under setting [1] is more than 10000 nM.
For `C[C@@H](NC(=O)c1ccc(COc2cccc(F)c2)nc1)C1CCCCC1` [drawing 74], under setting [1], the EC50 turned out to be 172 nM.
As to `CC(C)NC(=O)c1ccc(COc2ccccc2)nc1`, the EC50 under setting [1] was more than 10000 nM.
`O=C(NC1CCCCC1)c1ccc(COc2cccc(F)c2)nc1`: under setting [1], the half-maximal effective concentration (EC50) turned out to be 447 nM.
Still for that read-out and setting: the result for `O=C(Nc1cccc(F)c1)c1ccc(COc2ccccc2)nc1` reads more than 10000 nM; that for `O=C(Nc1ccncc1)c1ccc(COc2ccccc2)nc1`, more than 10000 nM.
As to `O=C(Nc1ccc(F)cc1F)c1ccc(COc2ccccc2)nc1`, under setting [1], the EC50 worked out at 501 nM.
As for `O=C(NC1CC2CCC1C2)c1ccc(COc2cccc(F)c2)nc1` (stereo not shown), the concentration for a half-maximal effect (EC50) under setting [1] amounted to 75.9 nM.
`C[C@@H](NC(=O)c1ccc(COc2cccc(F)c2)nc1)C(C)(C)C` [Example 13a, (R)-N-(3,3-dimethylbutan-2-yl)-6-((3-fluorophenoxy)methyl)nicotinamide]: the 50% effective concentration (EC50) under setting [2] stood at 81 nM.
Take `O=C(NCC1CCCCC1)c1ccc(COc2ccccc2)nc1`: the concentration giving a half-maximal response (EC50) under setting [1] was found to be 575 nM.
As to `C[C@@H](NC(=O)c1ccc(COc2cccc(Cl)c2)nc1)C1CCCCC1`, the EC50 under setting [1] is 210 nM.
Same read-out and setting: the result for `O=C(NCCc1ccc(Cl)cc1)c1ccc(COc2ccccc2)nc1` reads more than 10000 nM.
For `O=C(Nc1cccc(C(F)(F)F)c1)c1ccc(COc2ccccc2)nc1`, under setting [1], the EC50 was more than 10000 nM.
Same read-out and setting: the result for `C[C@@H](NC(=O)c1ccc(COc2cccc(C#N)c2)nc1)C1CCCCC1` reads 220 nM.
`CC(C)NC(=O)c1ccc(COc2cc(F)cc(C#N)c2)nc1`: the EC50 under setting [1] was more than 10000 nM.
`C[C@@H](NC(=O)c1ccc(COc2ccccc2)nc1)C1CCCCC1` [drawing 69]: under setting [1], the 50% effective concentration (EC50) came out at 146 nM.
As for `O=C(Nc1ccc(F)cn1)c1ccc(COc2ccccc2)nc1`, under setting [1], the concentration giving a half-maximal response (EC50) amounted to 1510 nM.
For `O=C(NCc1ccccn1)c1ccc(COc2ccccc2)nc1`, the EC50 under setting [1] is more than 10000 nM.
As to `CC(NC(=O)c1ccc(COc2ccccc2)nc1)C1CCCCC1` (stereo not shown), the concentration for a half-maximal effect (EC50) under setting [1] was 188 nM.
Take `O=C(NC12CC3CC(CC(C3)C1)C2)c1ccc(COc2ccccc2)nc1`: the EC50 under setting [1] turned out to be 603 nM.
`C[C@H](NC(=O)c1ccc(COc2cc(F)cc(C#N)c2)nc1)C1CCCCC1`: under setting [1], the 50% effective concentration (EC50) was more than 10000 nM.
`CC(C)NC(=O)c1ccc(COc2cc(F)cc(F)c2)nc1`: under setting [1], the EC50 is more than 10000 nM.
Turning to `N#Cc1cc(F)cc(OCc2ccc(C(=O)NC3(c4ccccc4)CCC3)cn2)c1`, under setting [1], the EC50 is more than 10000 nM.
`C[C@@H](NC(=O)c1ccc(COc2ccccc2)nc1)C1CCCCC1` [drawing 78]: the 50% effective concentration (EC50) under setting [1] was 257 nM.
For the compound `O=C(Nc1nccs1)c1ccc(COc2ccccc2)nc1`, the half-maximal effective concentration (EC50) under setting [1] was 1200 nM.

For the origin of these results see US8969389B2, “Substituted 6-methylnicotinamides as mGluR5 positive allosteric modulators” (Vanderbilt University, priority 2010, dated 2015).
